Results taken from patent EP0210284B1, “1,3-Dithiol-2-ylidene derivatives” (priority 1985, dated 1987).
Like-named read-outs stand apart in the source and are kept apart here.

Tests used:
[1] = system: Acute Liver Injury Induced by Carbon Tetrachloride; assay: Protective effect on acute liver injury induced by carbon tetrachloride; type: in vivo, mice (ddY mice); conditions: for Liver Damage Index: 50mg/kg orally in olive oil 6 hours before carbon tetrachloride (0.05ml/kg orally), visual score 0: normal, 2: slightly, 4: distinctly, 6: remarkably injured, n=5, CCl4 alone 6.0; for inhibition in vivo at 50 mg/kg: Mus musculus, po, 50mg/kg orally 6 hours before carbon tetrachloride (0.05ml/kg orally), CCl4 alone 0, Normal 100
Experimental: A test compound was dissolved or suspended in olive oil and administered orally at a dose of 50mg/kg to mice (ddY mice, ? , 23 ± 2g, n=5). After 6 hours, carbon tetrachloride (0.05ml/kg) was administered orally. 24 Hours after the administration of carbon tetrachloride, BSP (sodium sulfobromophthalene; 75mg/kg) was administered intravenously. Thirty minutes later, the cardiac blood was collected, and GPT (glutamic-pyruvic transaminase) activity and the retention rate of BSP in the plasma were measured. Further, the liver injury immediately after the collection of the blood was visually observed and evaluated by the following score for liver damage index. 0: normal 2: Slightly injured 4: distinctly injured 6: remarkably injured

[2] = system: mice (ddY mice); assay: Acute toxicity test; type: in vivo; conditions: oral in olive oil, mortality one week after the administration, n=5
Experimental: A test compound was dissolved or suspended in olive oil and administered orally to mice (ddY mice, ? , 23±2g, n=5). The acute toxicity value (LD₅₀) was determined from the mortality one week after the administration.

[3] = system: Acute Liver Injury Induced by D-Galactosamine; assay: Protective effect on acute liver injury induced by D-galactosamine; type: in vivo, rats (SD strain); conditions: 50mg/kg orally twice daily for 6 days, D-galactosamine 200mg/kg x 3 i.p.; for Glucose / P-GPT: plasma 48 hours after first injection; for Glucose: D-Galactosamine alone 32±4, Normal 142±4; for P-GPT: D-Galactosamine alone 4825±590, Normal 29±2; for ALP: alkaline phosphatase in plasma, D-Galactosamine alone 176±6, Normal 500±63
Experimental: A test compound was dissolved or suspended in olive oil and orally administered twice daily for 6 days at a dose of 50mg/kg to rats (SD strain, ? , 225 ±15g, 7 weeks-old, n=5). On the 6th day, D-galactosamine (200mg/kg x 3) was intraperitoneally administered three times at 3-hour intervals. 48 Hours after the first injection of D-galactosamine, the animals were sacrificed by exsanguination from the abdominal aorta. The protective effect was evaluated by examining the biochemical parameters (p-GPT, glucose, alkaline phosphatase) in plasma.

[4] = system: Protein Synthesis in Liver; assay: Effect on protein synthesis in liver; type: in vivo, rats (Wister strain); conditions: 100mg/kg orally for 3 days
Experimental: Compound 6 was dissolved in olive oil and orally administered successively for 3 days at a dose of 100mg/kg to rats (Wister strain, ? , 180±10g, 6 week-old, n=5). 24 Hours after the administration of the test compound was completed, the animals were sacrificed. The effect on the protein synthesis in the liver was evaluated by determining the liver weight and protein content.

[5] = system: Fatty Liver Induced by Carbon Tetrachloride; assay: Therapeutic effect on fatty liver induced by carbon tetrachloride; type: in vivo, rats (SD strain); design: Apoprotein: unit not given here
Experimental: Carbon tetrachloride (1ml/kg) was subcutaneously administered to rats (SD strain, ? , 38 week-old, n=5) for 4 days. Upon expiration of 3 days from the administration of carbon tetrachloride, Compound 6 was orally given successively for 7 days at the dose of 50mg/kg. On the 8th day, the animals were sacrificed by exsanguination. The therapeutic effect was evaluated by examining the content of triglyceride in the liver and the concentration of apoprotein B in the plasma. […]

[6] = 24.5 h, retention rate of BSP in plasma 30 minutes after BSP 75mg/kg i.v., read-out: % Prophylaxis BSP
[7] = plasma GPT about 24.5 hours after CCl4, read-out: % Prophylaxis p-GPT

Compound	Liver Damage Index [1]	inhibition in vivo at 50 mg/kg [1, 6] [%]	inhibition in vivo at 50 mg/kg [1, 7] [%]	acute toxicity value (LD50) [2]	Glucose [3] [mg/dL]	P-GPT [3] [U/l]	ALP [3] [U/l]	Liver Weight ([4]; 24 hours after last administration, Control 6.3±0.1) [g/100g b.w.]	Liver Protein ([4]; 24 hours after last administration, Control 883±79) [mg/100g b.w.]	effect for stimulating the protein metabolic function of the liver ([4]; statement in words)	effect for curing the fatty liver ([5]; 50mg/kg orally for 7 days, rats with CCl4-induced fatty liver, statement in words)	Apoprotein ([5]; apoprotein B in plasma, carbon tetrachloride 1ml/kg s.c. for 4 days, compound 50mg/kg orally for 7 days, CCl4 alone 66± 2, Normal 125± 8)	Triglyceride ([5]; carbon tetrachloride 1ml/kg s.c. for 4 days, compound 50mg/kg orally for 7 days, liver content on the 8th day, CCl4 alone 99± 6, Normal 33± 5) [mg/g-liver]
CC(=O)C(C(=O)c1ccccc1)=C1SC=CS1 [Compound 6, 2-(1,3-dithiol-2-ylidene)-1-phenyl-1,3-butanedione]	0.4	103	100	at least 2 g	81 ± 9	908±248	398±45	8.6±0.3	1247±62	substantial effect for stimulating the protein metabolic function of the liver	significant effect for curing the fatty liver	112± 23	33± 7
CC(=O)C(C(=O)c1nc2ccccc2[nH]1)=C1SC=CS1 [Compound 47, 2-(1,3-dithiol-2-ylidene)-1-(2-benzimidazolyl)-1,3-butanedione]	2.4	103	91	–	55 ± 2	2938±694	287±25	–	–	–	–	–	–
